From patent US20180214395A1 (priority 2017, published 2018)

Assay: SAD study: cardiac safety (ECG, telemetry, QTcF prolongation)

Structure (SMILES): CCC(=O)C(C[C@H](C)N(C)C)(c1ccccc1)c1ccccc1 [d-methadone]
- QTcF Reading 1 (100 mg, subject 9056, 0.5 h): 415 ms
- QTcF Reading 2 (100 mg, subject 9056, 0.5 h): 424 ms
- QTcF Reading 3 (100 mg, subject 9056, 0.5 h): 436 ms
- QTcF Average (100 mg, subject 9056, 2 h): 439 ms
- QTcF Reading 1 (100 mg, subject 9056, 2 h): 445 ms
- QTcF Reading 2 (100 mg, subject 9056, 2 h): 426 ms
- QTcF Reading 3 (100 mg, subject 9056, 2 h): 446 ms
- QTcF Average (100 mg, subject 9056, 3 h): 442 ms
- QTcF Reading 1 (100 mg, subject 9056, 3 h): 453 ms
- QTcF Reading 2 (100 mg, subject 9056, 3 h): 443 ms
- QTcF Reading 3 (100 mg, subject 9056, 3 h): 429 ms
- QTcF Average (100 mg, subject 9056, 5 h): 429 ms
- QTcF Reading 1 (100 mg, subject 9056, 5 h): 419 ms
- QTcF Reading 2 (100 mg, subject 9056, 5 h): 448 ms
- QTcF Reading 3 (100 mg, subject 9056, 5 h): 419 ms
- QTcF Average (100 mg, subject 9056, 8 h): 446 ms
- QTcF Reading 1 (100 mg, subject 9056, 8 h): 436 ms
- QTcF Reading 2 (100 mg, subject 9056, 8 h): 457 ms
- QTcF Reading 3 (100 mg, subject 9056, 8 h): 444 ms
- QTcF Average (100 mg, subject 9056, 24 h): 432 ms
- QTcF Reading 1 (100 mg, subject 9056, 24 h): 432 ms
- QTcF Reading 2 (100 mg, subject 9056, 24 h): 431 ms
- QTcF Reading 3 (100 mg, subject 9056, 24 h): 434 ms
- QTcF Average (100 mg, subject 9056, 48 h): 422 ms
- QTcF Reading 1 (100 mg, subject 9056, 48 h): 418 ms
- QTcF Reading 2 (100 mg, subject 9056, 48 h): 433 ms
- QTcF Reading 3 (100 mg, subject 9056, 48 h): 416 ms
- Overall ECG result Abnormal, NCS (150 mg (N = 6), 0.5 h): 1 (16.7) n (%)
- Overall ECG result Normal (150 mg (N = 6), 0.5 h): 5 (83.3) n (%)
- Overall ECG result Abnormal, NCS (150 mg (N = 6), 1 h): 2 (33.3) n (%)
- Overall ECG result Normal (150 mg (N = 6), 1 h): 4 (66.7) n (%)
- Overall ECG result Abnormal, NCS (150 mg (N = 6), 2 h): 2 (33.3) n (%)
- Overall ECG result Normal (150 mg (N = 6), 2 h): 4 (66.7) n (%)
- Overall ECG result Abnormal, NCS (150 mg (N = 6), 3 h): 4 (66.7) n (%)
- Overall ECG result Normal (150 mg (N = 6), 3 h): 2 (33.3) n (%)
- Overall ECG result Abnormal, NCS (150 mg (N = 6), 5 h): 2 (33.3) n (%)
- Overall ECG result Normal (150 mg (N = 6), 5 h): 4 (66.7) n (%)
- Overall ECG result Abnormal, NCS (150 mg (N = 6), 8 h): 2 (33.3) n (%)
- Overall ECG result Normal (150 mg (N = 6), 8 h): 4 (66.7) n (%)
- Overall ECG result Abnormal, NCS (150 mg (N = 6), 12 h): 2 (33.3) n (%)
- Overall ECG result Normal (150 mg (N = 6), 12 h): 4 (66.7) n (%)
- Overall ECG result Abnormal, NCS (150 mg (N = 6), 24 h): 1 (16.7) n (%)
- Overall ECG result Normal (150 mg (N = 6), 24 h): 5 (83.3) n (%)
- Overall ECG result Abnormal, NCS (150 mg (N = 6), 48 h): 1 (16.7) n (%)
- Overall ECG result Normal (150 mg (N = 6), 48 h): 5 (83.3) n (%)
- Overall ECG result Abnormal, NCS (150 mg (N = 6), 72 h): 0 n (%)
- Overall ECG result Normal (150 mg (N = 6), 72 h): 6 (100) n (%)
- Overall ECG result Abnormal, NCS (150 mg (N = 6), Visit 3): 0 n (%)
- Overall ECG result Normal (150 mg (N = 6), Visit 3): 6 (100) n (%)
- QTcF Average (150 mg, subject 9088, 3 h): 422 ms
- QTcF Reading 1 (150 mg, subject 9088, 3 h): 410 ms
- QTcF Reading 2 (150 mg, subject 9088, 3 h): 434 ms
- QTcF Reading 3 (150 mg, subject 9088, 3 h): 423 ms
- QTcF Average (150 mg, subject 9088, 12 h): 430 ms
- QTcF Reading 1 (150 mg, subject 9088, 12 h): 434 ms
- QTcF Reading 2 (150 mg, subject 9088, 12 h): 427 ms
- QTcF Reading 3 (150 mg, subject 9088, 12 h): 429 ms
- QTcF Average (150 mg, subject 9099, 3 h): 429 ms
- QTcF Reading 1 (150 mg, subject 9099, 3 h): 420 ms
- QTcF Reading 2 (150 mg, subject 9099, 3 h): 431 ms
- QTcF Reading 3 (150 mg, subject 9099, 3 h): 435 ms
- QTcF Average (150 mg, subject 9099, 5 h): 436 ms
- QTcF Reading 1 (150 mg, subject 9099, 5 h): 437 ms
- QTcF Reading 2 (150 mg, subject 9099, 5 h): 440 ms
- QTcF Reading 3 (150 mg, subject 9099, 5 h): 431 ms
- Overall ECG result Abnormal, NCS (200 mg (N = 1), 0.5 h): 1 (100) n (%)
- Overall ECG result Normal (200 mg (N = 1), 0.5 h): 0 n (%)
- Overall ECG result Abnormal, NCS (200 mg (N = 1), 1 h): 1 (100) n (%)
- Overall ECG result Normal (200 mg (N = 1), 1 h): 0 n (%)
- Overall ECG result Abnormal, NCS (200 mg (N = 1), 2 h): 1 (100) n (%)
- Overall ECG result Normal (200 mg (N = 1), 2 h): 0 n (%)
- Overall ECG result Abnormal, NCS (200 mg (N = 1), 3 h): 1 (100) n (%)
- Overall ECG result Normal (200 mg (N = 1), 3 h): 0 n (%)
- Overall ECG result Abnormal, NCS (200 mg (N = 1), 5 h): 1 (100) n (%)
- Overall ECG result Normal (200 mg (N = 1), 5 h): 0 n (%)
- Overall ECG result Abnormal, NCS (200 mg (N = 1), 8 h): 0 n (%)
- Overall ECG result Normal (200 mg (N = 1), 8 h): 1 (100) n (%)
- Overall ECG result Abnormal, NCS (200 mg (N = 1), 12 h): 0 n (%)
- Overall ECG result Normal (200 mg (N = 1), 12 h): 1 (100) n (%)
- Overall ECG result Abnormal, NCS (200 mg (N = 1), 24 h): 1 (100) n (%)
- Overall ECG result Normal (200 mg (N = 1), 24 h): 0 n (%)
- Overall ECG result Abnormal, NCS (200 mg (N = 1), 48 h): 0 n (%)
- Overall ECG result Normal (200 mg (N = 1), 48 h): 1 (100) n (%)
- Overall ECG result Abnormal, NCS (200 mg (N = 1), 72 h): 0 n (%)
- Overall ECG result Normal (200 mg (N = 1), 72 h): 1 (100) n (%)
- Overall ECG result Abnormal, NCS (200 mg (N = 1), Visit 3): 0 n (%)
- Overall ECG result Normal (200 mg (N = 1), Visit 3): 1 (100) n (%)
- QTcF Average (200 mg, subject 9078, 3 h): 426 ms
- QTcF Reading 1 (200 mg, subject 9078, 3 h): 441 ms
- QTcF Reading 2 (200 mg, subject 9078, 3 h): 422 ms
- QTcF Reading 3 (200 mg, subject 9078, 3 h): 416 ms
- ECG abnormal result: QTcF prolongation (SAD 5 mg, 1 h): 1 (16.7) n (%)
- ECG abnormal result: QTcF prolongation (SAD 5 mg, 2 h): 2 (33.3) n (%)
- ECG abnormal result: QTcF prolongation (SAD 5 mg, 3 h): 1 (16.7) n (%)
- ECG abnormal result: QTcF prolongation (SAD 5 mg, 5 h): 2 (33.3) n (%)
- ECG abnormal result: QTcF prolongation (SAD 5 mg, total): 3 (50.0) n (%)
- ECG abnormal result: QTcF prolongation (SAD 20 mg, total): 0 n (%)
- ECG abnormal result: QTcF prolongation (SAD 60 mg, total): 0 n (%)
- ECG abnormal result: QTcF prolongation (SAD 100 mg, 0.5 h): 1 (16.7) n (%)
- ECG abnormal result: QTcF prolongation (SAD 100 mg, 2 h): 1 (16.7) n (%)
- ECG abnormal result: QTcF prolongation (SAD 100 mg, 3 h): 1 (16.7) n (%)
- ECG abnormal result: QTcF prolongation (SAD 100 mg, 5 h): 1 (16.7) n (%)
- ECG abnormal result: QTcF prolongation (SAD 100 mg, 8 h): 1 (16.7) n (%)
- ECG abnormal result: QTcF prolongation (SAD 100 mg, 24 h): 1 (16.7) n (%)
- ECG abnormal result: QTcF prolongation (SAD 100 mg, 48 h): 1 (16.7) n (%)
- ECG abnormal result: QTcF prolongation (SAD 100 mg, total): 1 (16.7) n (%)
- ECG abnormal result: QTcF prolongation (SAD 150 mg, 3 h): 2 (33.3) n (%)
- ECG abnormal result: QTcF prolongation (SAD 150 mg, 5 h): 1 (16.7) n (%)
- ECG abnormal result: QTcF prolongation (SAD 150 mg, 12 h): 1 (16.7) n (%)
- ECG abnormal result: QTcF prolongation (SAD 150 mg, total): 2 (33.3) n (%)
- ECG abnormal result: QTcF prolongation (SAD 200 mg (N=1), 3 h): 1 (100) n (%)
- ECG abnormal result: QTcF prolongation (SAD 200 mg (N=1), total): 1 (100) n (%)
- Dose relation of QTcF prolongation (SAD study): no dose-related effects were observed
- Maximum QTcF interval observed (SAD study, Subject 9056): 457 ms
